Source: US20140107171A1, “Methods of Treating an Overweight or Obese Subject” (Zafgen, Inc., priority 2008, published 2014)

System: diet-induced obese mice
Assay: Weight loss study in diet-induced obese mice, oral administration
Assay type: in vivo
Details: C57BL/6NTac mice on 60% fat diet; 1.0 mg/kg orally in 10% gelucire in deionised water, once a day for 8 days
Method: A weight loss study is conducted in obese mice. The mice in this study are not genetically obese, BUT prior to and during the study, obesity is induced by a high-fat diet. Twelve week-old C57BL/6NTac mice, are maintained on a 60% fat diet prior to and during the study, are separated into […], eight animals per group. Average body weight of the mice is taken at the start of the study.
Each of six groups is orally administered 1.0 mg/kg of a compound disclosed herein in 10% gelucire in DEIONISED water. Each of these six groups is administered a different compound. One group is orally administered fumagillin at 1.0 mg/kg in 10% gelucire in deionised water, and one group is administered 10% gelucire in deionised water (vehicle). Mice receive administrations once a day for 8 days.

Q: `CO[C@@H]1[C@H](OC(=O)/C=C/C=C/C=C/C=C/C(=O)O)CC[C@]2(CO2)[C@H]1[C@@]1(C)O[C@@H]1CC=C(C)C` [fumagillin] was tested. Which “body weight change over the course of the 8 days” value did it give?
A: weight over the course of the 8 days
